The results in this text go back to patent publication US11584765B2 (priority 2017, dated 2023).

In this experiment the test system is C57BL/6 mice. Nature of the experiment: animal or person. The settings on record: Mus musculus, sc, 0.5 h, s.c. administration, 30 min, 55° C. water, read-out: ED50 (mg/kg) at 30 min on C57BL/6 mice in Warm-water Tail-flick Test. The experiment is classed as in vivo.

Molecules are shown by their SMILES.

As to `CCOCC1(CCc2ccccc2)CCN(Cc2ccccc2-c2cccs2)C1` (centres unmarked) [Compound 316, 3-(ethoxymethyl)-3-phenethyl-1-(2-(thiophen-2-yl)benzyl)pyrrolidine], the ED50 was above 10 mg/kg.

Turning to `CCOCC1(CCc2ccccc2)CCN(Cc2ccccc2-c2ccco2)C1` (centres unmarked) [Compound 317], the ED50 is above 10 mg/kg. `CCOC[C@@]1(CCc2ccsc2)CCN(Cc2ccc(C)nc2)C1` [Compound 318, (S)-5-((3-(ethoxymethyl)-3-(2-(thiophen-3-yl)ethyl)pyrrolidin-1-yl)methyl)-2-methylpyridine]: the ED50 was below 10 mg/kg. `CCOC[C@@]1(CCc2ccccc2)CCN(Cc2ccc(C)nc2)C1` [Compound 319, (S)-5-((3-(ethoxymethyl)-3-phenethylpyrrolidin-1-yl)methyl)-2-methylpyridine]: the ED50 is below 10 mg/kg. Consider `CCOC[C@@]1(CCc2ccc(F)cc2)CCN(Cc2ccc(C)nc2)C1` [Compound 320, (S)-5-((3-(ethoxymethyl)-3-(4-fluoro-phenethyl)pyrrolidin-1-yl)methyl)-2-methylpyridine], for which the ED50 was below 10 mg/kg.

With `CCOC[C@@]1(CCc2cc(C)cs2)CCN(Cc2ccc(C)nc2)C1` [Compound 321, (S)-5-((3-(ethoxymethyl)-3-(2-(4-methylthiophen-2-yl)ethyl)pyrrolidin-1-yl)methyl)-2-methylpyridine], the ED50 was below 10 mg/kg. The value for `CCOC[C@@]1(CCc2ccc(F)cc2)CCN(Cc2cccnc2)C1` [Compound 322, (S)-3-((3-(ethoxymethyl)-3-(4-fluorophenethyl)pyrrolidin-1-yl)methyl)pyridine] was below 10 mg/kg.

On to `CCOC[C@@]1(CCc2csc(C)c2)CCN(Cc2cccnc2)C1` [Compound 323, (S)-3-((3-(ethoxymethyl)-3-(2-(5-methylthiophen-3-yl)ethyl)pyrrolidin-1-yl)methyl)pyridine], for which the ED50 is below 10 mg/kg. On to `CCOC[C@@]1(CCc2ccsc2)CCN(Cc2ccc(NC(C)=O)cc2)C1` [Compound 324, (S)-N-(4-((3-(ethoxymethyl)-3-(2-(thiophen-3-yl)ethyl)pyrrolidin-1-yl)methyl)phenyl)acetamide], for which the ED50 is below 10 mg/kg.

Take `CCOCC1(CCc2ccccc2)CCN(C(C)c2cccnc2)CC1` (centres unmarked) [Compound 327, 3-(1-(4-(ethoxymethyl)-4-phenethylpiperidin-1-yl)ethyl)pyridine]: the ED50 was below 10 mg/kg.

For `Cc1ccc(C(C)N2CCC(CCc3ccccc3)(c3ccccn3)CC2)c(C)n1` (centres unmarked) [Compound 328, 2,6-dimethyl-3-(1-(4-phenethyl-4-(pyridin-2-yl)piperidin-1-yl)ethyl)pyridine], the ED50 is below 10 mg/kg. With `CCOC[C@@]1(CCc2cc(C)cs2)CCN(Cc2ccc(C)nc2C)C1` [Compound 329, (S)-3-((3-(ethoxymethyl)-3-(2-(4-methylthiophen-2-yl)ethyl)pyrrolidin-1-yl)methyl)-2,6-dimethylpyridine], the ED50 is below 10 mg/kg. Turning to `CCOC[C@@]1(CCc2csc(C)c2)CCN(Cc2ccc(C)nc2C)C1` [Compound 330, (S)-3-((3-(ethoxymethyl)-3-(2-(5-methylthiophen-yl)ethyl)pyrrolidin-1-yl)methyl)-2,6-dimethylpyridine], the ED50 was below 10 mg/kg. Regarding `CCOC[C@@]1(CCc2cscc2C)CCN(Cc2ccc(C)nc2C)C1` [Compound 331, (S)-3-((3-(ethoxymethyl)-3-(2-(4-methylthiophen-3-yl)ethyl)pyrrolidin-1-yl)methyl)-2,6-dimethylpyridine], the ED50 is below 10 mg/kg. Turning to `CCOCC1(CCc2ccccc2)CCN(C(C)c2cnn(C)c2)C1` (stereo not drawn) [Compound 332, 4-(1-(3-(ethoxymethyl)-3-phenethylpyrrolidin-1-yl)ethyl)-l-methyl-1H-pyrazole], the ED50 was below 10 mg/kg. For the molecule `CCOC[C@@]1(CCc2cccs2)CCN(Cc2ccc(C)nc2)C1` [Compound 333, (S)-5-((3-(ethoxymethyl)-3-(2-(thiophen-2-yl)ethyl)pyrrolidin-1-yl)methyl)-2-methylpyridine], the ED50 was below 10 mg/kg. As to `CCOC[C@@]1(CCc2cccs2)CCN(Cc2ccc(C)nc2C)C1` [Compound 334, (S)-3-((3-(ethoxymethyl)-3-(2-(thiophen-2-yl)ethyl)pyrrolidin-1-yl)methyl)-2,6-dimethylpyridine], the ED50 is below 10 mg/kg. With `CCOC[C@@]1(CCc2csc(C)c2)CCN(Cc2ccc(C)nc2)C1` [Compound 335, (S)-5-((3-(ethoxymethyl)-3-(2-(5-methylthiophen-3-yl)ethyl)pyrrolidin-1-yl)methyl)-2-methylpyridine], the ED50 is below 10 mg/kg. Regarding `CCOC[C@@]1(CCc2ccsc2)CCN(Cc2ccc(C)nc2C)C1` [Compound 336], the ED50 was below 10 mg/kg.

On to `CCOC[C@@]1(CCc2cc(C)cs2)CCN(Cc2cccnc2)C1.Cl` [Compound 337], for which the ED50 was below 10 mg/kg. Take `CCOCC1(CCc2ccccc2)CCN(CC(O)c2ccc(C)nc2)C1` (centres unmarked) [Compound 338, 2-(3-(ethoxymethyl)-3-phenethylpyrrolidin-1-yl)-1-(6-methylpyridin-3-yl)ethanol]: the ED50 is above 10 mg/kg. The value for `Cc1ccc(N(C)N2CCC(CCc3ccccc3)(c3ccccn3)CC2)c(C)n1` [Compound 339, N,2,6-trimethyl-N-(4-phenethyl-4-(pyridin-2-yl)piperidin-1-yl)pyridin-3-amine] was above 10 mg/kg. Regarding `CCOCC1(CCc2ccccc2)CCN(Cc2csc(C)n2)C1` (centres unmarked) [Compound 340, 4-((3-(ethoxymethyl)-3-phenethylpyrrolidin-1-yl)methyl)-2-methylthiazole], the ED50 is above 10 mg/kg. With `CCOCC1(CCc2ccccc2)CCN(C(C)c2csc(C)n2)C1` (centres unmarked) [Compound 341, 4-(1-(3-(ethoxymethyl)-3-phenethylpyrrolidin-1-yl)ethyl)-2-methylthiazole], the ED50 was below 10 mg/kg. The value for `CCOCC1(CCc2ccccc2)CCN(C(CO)c2ccc(C)nc2)C1` (centres unmarked) [Compound 342, 2-(3-(ethoxymethyl)-phenethylpyrrolidin-1-yl)-2-(6-methylpyridin-3-yl)ethanol] was below 10 mg/kg.

`CCOCC1(CCc2ccccc2)CCN(C(C)(C)c2cccnc2)C1` (centres unmarked) [Compound 343, 3-(2-(3-(ethoxymethyl)-3-phenethylpyrrolidin-1-yl)propan-2-yl)pyridine]: the ED50 was below 10 mg/kg. Consider `CCOC[C@@]1(CCc2ccc(F)s2)CCN(Cc2ccc(C)nc2)C1` [Compound 344], for which the ED50 is below 10 mg/kg. `CCOC[C@@]1(CCc2ccc(F)s2)CCN(Cc2cccnc2)C1` [Compound 345, (S)-3-((3-(ethoxymethyl)-3-(2-(5-fluorothiophen-2-yl)ethyl)pyrrolidin-1-yl)methyl)pyridine]: the ED50 was below 10 mg/kg.

For the molecule `CCOCC1(CCc2ccccc2)CCN(C(C)c2cnc(C)s2)C1` (centres unmarked) [Compound 346, 5-(1-(3-(ethoxymethyl)-3-phenethylpyrrolidin-1-yl)ethyl)-2-methylthiazole], the ED50 was below 10 mg/kg.

As to `CCOCC1(CCc2ccccc2)CCN(C(C)C(O)c2ccc(C)nc2)C1` (centres unmarked) [Compound 347, 2-(3-(ethoxymethyl)-3-phenethylpyrrolidin-1-yl)-1-(6-methylpyridin-3-yl)propan-1-ol], the ED50 was above 10 mg/kg. Take `Cc1ccc(CN2CC[C@](CCc3ccsc3)([C@@H]3CCCO3)C2)cn1` [Compound 348, 2-methyl-5-(((S)-3-((S)-tetrahydrofuran-2-yl)-3-(2-(thiophen-3-yl)ethyl)pyrrolidin-1-yl)methyl)pyridine]: the ED50 was below 10 mg/kg. Turning to `CCOCC1(CCc2ccccn2)CCN(C(C)c2ccc(C)nc2)C1` (centres unmarked) [Compound 349, 5-(1-(3-(ethoxymethyl)-3-(2-(pyridin-2-yl)ethyl)pyrrolidin-1-yl)ethyl)-2-methylpyridine], the ED50 was below 10 mg/kg.

For the molecule `CCOCC1(CCc2cccnc2)CCN(C(C)c2ccc(C)nc2)C1` (centres unmarked) [Compound 350, 5-(1-(3-(ethoxymethyl)-3-(2-(pyridin-3-yl)ethyl)pyrrolidin-1-yl)ethyl)-2-methylpyridine], the ED50 is below 10 mg/kg. On to `CCOCC1(CCc2ncccn2)CCN(C(C)c2ccc(C)nc2)C1` (centres unmarked) [Compound 351, 2-(2-(3-(ethoxymethyl)-1-(1-(6-methylpyridin-3-yl)ethyl)pyrrolidin-3-yl)ethyl)pyrimidine], for which the ED50 was below 10 mg/kg. The value for `CCOC[C@]1(CCc2ccsc2)CCN(C(C)(C)c2ccc(C)nc2)C1` [Compound 352, (R)-5-(2-(3-(ethoxymethyl)-3-(2-(thiophen-3-yl)ethyl)pyrrolidin-1-yl)propan-2-yl)-2-methylpyridine] was below 10 mg/kg; that for `CCOC[C@@]1(CCc2cccs2)CCN(C(C)(C)c2ccc(C)nc2)C1` [Compound 353, (S)-5-(2-(3-(ethoxymethyl)-3-(2-(thiophen-2-yl)ethyl)pyrrolidin-1-yl)propan-2-yl)-2-methylpyridine] was below 10 mg/kg. As to `CCOC[C@@]1(CCc2csc(C)c2)CCN(C(C)(C)c2ccc(C)nc2)C1` [Compound 354, (S)-5-(2-(3-(ethoxymethyl)-3-(2-(5-methylthiophen-3-yl)ethyl)pyrrolidin-1-yl)propan-2-yl)-2-methylpyridine], the ED50 was below 10 mg/kg. With `CCOC[C@@]1(CCc2cc(C)cs2)CCN(C(C)(C)c2ccc(C)nc2)C1` [Compound 355, (S)-5-(2-(3-(ethoxymethyl)-3-(2-(4-methylthiophen-2-yl)ethyl)pyrrolidin-1-yl)propan-2-yl)-2-methylpyridine], the ED50 was below 10 mg/kg. The value for `CCOC[C@@]1(CCc2ccsc2)CCN(C(C)(C)c2ccc(C)nc2)C1` [Compound 356, (S)-5-(2-(3-(ethoxymethyl)-3-(2-(thiophen-3-yl)ethyl)pyrrolidin-1-yl)propan-2-yl)-2-methylpyridine] was below 10 mg/kg. Consider `CCOCC1(CCc2cnccn2)CCN(C(C)c2ccc(C)nc2)C1.Cl` (centres unmarked) [Compound 357, 2-(2-(3-(ethoxymethyl)-1-(1-(6-methylpyridin-3-yl)ethyl)pyrrolidin-3-yl)ethyl)pyrazine HCl], for which the ED50 is below 10 mg/kg. As to `CCOCC1(CCc2nccn2C)CCN(C(C)c2ccc(C)nc2)C1` (centres unmarked) [Compound 358, 5-(1-(3-(ethoxymethyl)-3-(2-(1-methyl-1H-imidazol-2-yl)ethyl)pyrrolidin-1-yl)ethyl)-2-methylpyridine], the ED50 is above 10 mg/kg.
